Reference: patent publication US20110086797A1, “CONTROL OF SPORE GERMINATION” (priority 2007, published 2011)
Entries after “also recorded” stand apart in the source; their conditions may differ. Read-outs that look alike come from different tables or passages of the source.

Columns and labels:
[1] = system: B. subtilis spores; experiment: Measurement of germination by loss of heat resistance; assay type: cell-based, Bacillus subtilis
[2] = system: B. subtilis wild type spores; experiment: Sensitivity to antibiotic (tetracycline) after stimulation of germination; conditions: for % Loss in viable cells: germinant 60 min at 37° C. (muropeptide 40 μM, bryostatin 1 μM), then tetracycline 10 μg/ml 60 min, relative to no germinant
[3] = system: B. subtilis spores; experiment: Measurement of germination by fluorescence (Syto-9 dye); assay type: cell-based, Bacillus subtilis; conditions: 1 μM Bryostatin

GlcNAc-MurNAc tripeptide [Muropeptide]
concentration as low as which led to germination [1]: 1 µM | germination of ΔprkC spores (result in words) [1]: failed to germinate | % Loss in viable cells [2]: 72 ± 3%

CN[C@@H]1C[C@H]2O[C@@](C)([C@@H]1OC)n1c3ccccc3c3c4c(c5c6ccccc6n2c5c31)C(=O)NC4 [staurosporine]
germination with increasing amounts of peptidoglycan in the presence of inhibitor ([1]; 10 pM staurosporine, […]): did not increase germination | concentration as low as which significantly reduced peptidoglycan-dependent germination ([1]; […], 100 ng/ml B. subtilis peptidoglycan, 60 min): 10 pM | effect on L-alanine germination ([1]; data not shown): unaffected

Teleocidin
germination of wild type spores (result in words) [1]: able to stimulate germination of only the wildtype spore; also recorded: stimulated germination of wildtype spores | germination of ΔprkC spores (result in words) [1]: able to stimulate germination of only the wildtype spore

CCC/C=C/C=C/C(=O)O[C@H]1/C(=C/C(=O)OC)C[C@H]2C[C@H]([C@@H](C)O)OC(=O)C[C@H](O)C[C@@H]3C[C@H](OC(C)=O)C(C)(C)[C@](O)(C[C@@H]4C/C(=C/C(=O)OC)C[C@H](/C=C/C(C)(C)[C@]1(O)O2)O4)O3 [Bryostatin]
Fluorescence Germination Results ([3]; Wild-type spores, 5' at 37° C., excitation/emission 485/530): 14331 | Fluorescence Germination Results ([3]; ΔprKC (kinase mutant) spores, 5' at 37° C., 485/530): 5208 | Fluorescence Germination Results ([3]; ΔprpC (phosphatase mutant) spores, 5' at 37° C., 485/530): 13183 | Fluorescence Germination Results ([3]; ΔprpC, PrpC (phosphatase mutant overexpressing phosphatase from an ectopic site) spores, 485/530): 5529 | germination of ΔprkC spores (result in words) [1]: had no effect | maximum % germination ([1]; […], 1.0 μM bryostatin, 60 min): ~40% | % Loss in viable cells [2]: 32 ± 7% | sensitivity of treated spores to antibiotics (result in words) ([2]; wild type B. subtilis spores, tetracycline and spectinomycin): become sensitive to the ribosomal antibiotics tetracycline and spectinomycin

Ala-D-γ-Glu-Dpm tripeptide
germination of wild type spores (result in words) ([1]; wild type B. subtilis spores): failed to induce germination

CC(=O)N[C@H]1C(O)O[C@H](CO)[C@@H](O)[C@@H]1O[C@H](C)C(=O)N[C@@H](C)C(=O)N[C@H](CCC(=O)O)C(N)=O (mixture of isomers) [muramyl dipeptide]
germination of wild type spores (result in words) [1]: failed to induce germination

C[C@@H](N)C(=O)O [D-alanine]
inhibition of cell wall / peptidoglycan dependent germination (result in words) [1]: did not block cell wall dependent germination

CCCCCCCCCCCCCC(=O)O[C@@H]1[C@@H](C)[C@@]2(O)[C@@H](C=C(CO)C[C@]3(O)C(=O)C(C)=C[C@@H]23)[C@@H]2C(C)(C)[C@]12OC(C)=O [PMA, phorbol-12-myristate-13-acetate]
germination of wild type spores (result in words) [1]: chemically induces germination

O=C([O-])c1cccc(C(=O)[O-])n1.[Ca+2] [Ca^2+-dipicolinic acid]
germination of ΔprkC spores (result in words) [1]: still responded

C[C@H](N)C(=O)O [L-alanine]
germination of ΔprkC spores (result in words) [1]: still responded | germination of ΔprkC spores (result in words) ([1]; listed as alanine): still respond to alanine
